The results in this text go back to patent publication US8829011B2 (Janssen Pharmaceutica NV, priority 2008, dated 2014).

Where a name gives a salt, the structure may show the parent alone.

In experiment [1] the target is T1, human recombinant 5-HT2C receptor (Homo sapiens, UniProt P28335).
T1 construct: expressed in transfected cells; host or cells: CHO
T1 sequence (P28335 33-458): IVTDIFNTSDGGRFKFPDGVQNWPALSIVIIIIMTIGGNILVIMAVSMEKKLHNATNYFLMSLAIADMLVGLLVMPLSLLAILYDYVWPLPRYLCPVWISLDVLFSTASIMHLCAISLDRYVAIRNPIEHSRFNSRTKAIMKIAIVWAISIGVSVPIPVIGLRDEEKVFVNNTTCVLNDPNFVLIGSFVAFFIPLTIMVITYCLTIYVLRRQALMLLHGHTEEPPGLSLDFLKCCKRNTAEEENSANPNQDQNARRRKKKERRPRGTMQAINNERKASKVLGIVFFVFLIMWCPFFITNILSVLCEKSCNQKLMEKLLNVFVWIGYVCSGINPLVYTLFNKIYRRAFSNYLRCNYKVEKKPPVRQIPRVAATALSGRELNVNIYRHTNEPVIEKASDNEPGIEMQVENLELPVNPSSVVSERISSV
Put plainly: Affinity for 5-HT2C receptor binding sites (competitive radioligand binding, [3H]mesulergine). Conditions: membranes of CHO with h5-HT2C, * = tested as hydrochloride salt. The procedure, abridged:
(§1)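 Membranes from NIH3T3 cells stably expressing h5-HT2A or CHO cells stably expressing h5-HT2B/h5-HT2C; [3H]ketanserin used for 5-HT2A, [3H]mesulergine for 5-HT2B/2C. Compounds from 10 mM DMSO stocks, final DMSO ≤0.4%. Affinity from sigmoidal inhibition curves fitted by nonlinear regression.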

The target in experiment [2] is T2, human recombinant 5-HT6 receptor (Homo sapiens, UniProt P50406).
T2 construct: expressed in transfected cells; host or cells: HEK-293
T2 sequence (P50406 whole entry): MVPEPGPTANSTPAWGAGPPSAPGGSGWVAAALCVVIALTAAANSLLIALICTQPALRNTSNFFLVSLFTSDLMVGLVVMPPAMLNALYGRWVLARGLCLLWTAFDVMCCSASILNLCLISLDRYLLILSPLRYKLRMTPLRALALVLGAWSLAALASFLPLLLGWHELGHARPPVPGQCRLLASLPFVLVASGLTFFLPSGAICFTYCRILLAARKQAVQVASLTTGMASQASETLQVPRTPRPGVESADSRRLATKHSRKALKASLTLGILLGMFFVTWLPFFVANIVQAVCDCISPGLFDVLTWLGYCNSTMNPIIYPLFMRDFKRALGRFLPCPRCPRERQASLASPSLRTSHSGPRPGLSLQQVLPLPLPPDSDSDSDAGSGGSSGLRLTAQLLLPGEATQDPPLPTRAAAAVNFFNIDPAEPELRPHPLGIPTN
Put plainly: Affinity for 5-HT6 receptor binding sites (competitive radioligand binding, [3H]LSD). Conditions: membranes of HEK-293 with h5-HT6, * = tested as hydrochloride salt. The procedure: (§2) Stock drug solutions (10 mM) were prepared in DMSO (the final assay concentration of DMSO not exceeding 0.4%). Drug dilutions were prepared in assay buffer.
(§3) Sigmoidal inhibition curves were generated and fitted by nonlinear regression analysis (GraphPad Prism).
3. Affinity for 5-HT6 Receptor Binding Sites
Receptor binding was performed using the human recombinant 5-HT6 (GB: BC0794995) receptor. The affinity of the compounds for the human 5-HT6 receptor was evaluated by competitive radioligand binding assays using [^3H]LSD. The assays were performed on membranes prepared from HEK-293 stably transfected with h5-HT6. Non-specific binding was estimated in the presence of 1 μM clozapine.

In experiment [3] the target is T3, human recombinant 5-HT2A receptor (Homo sapiens, UniProt P28223).
T3 construct: expressed in transfected cells; host or cells: NIH3T3
T3 sequence (P28223 whole entry): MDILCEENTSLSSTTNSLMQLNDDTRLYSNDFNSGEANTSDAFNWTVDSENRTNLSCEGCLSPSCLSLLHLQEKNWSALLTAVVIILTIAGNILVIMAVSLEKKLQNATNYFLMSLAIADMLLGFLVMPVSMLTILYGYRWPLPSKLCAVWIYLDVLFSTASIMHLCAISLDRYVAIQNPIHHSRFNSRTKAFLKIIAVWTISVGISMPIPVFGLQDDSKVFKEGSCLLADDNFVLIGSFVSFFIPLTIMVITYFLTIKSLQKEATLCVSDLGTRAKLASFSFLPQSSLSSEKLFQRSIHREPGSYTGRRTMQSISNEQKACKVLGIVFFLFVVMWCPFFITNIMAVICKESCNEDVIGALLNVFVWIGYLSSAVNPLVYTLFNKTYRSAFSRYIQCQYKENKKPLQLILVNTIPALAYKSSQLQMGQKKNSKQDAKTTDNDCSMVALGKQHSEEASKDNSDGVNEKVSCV
Put plainly: Affinity for 5-HT2A receptor binding sites (competitive radioligand binding, [3H]ketanserin). Conditions: membranes of NIH3T3 with h5-HT2A, * = tested as hydrochloride salt. The procedure, abridged:
as §1

The next experiment has as its target T4, rat 5-HT7a receptor (Rattus norvegicus, UniProt P32305).
T4 construct: expressed in transfected cells; host or cells: HEK-293
Nature of the experiment: Affinity for 5-HT7 receptor binding sites (competition radioligand binding, [3H]5-CT). Conditions: membranes of HEK-293 cells with rat 5-HT7a; 1 nM [3H]5-CT; * = tested as hydrochloride salt. The procedure:
as §2, §3
1. Affinity for 5-HT7 Receptor Binding Sites
The affinity of the compounds described in this invention for the 5-HT7 receptor binding site was evaluated by single competition radioligand binding assay. The assay was performed on membranes prepared from HEK-293 cells that had been subjected to stable transfection with the rat 5-HT7a receptor (GB: NM022938). Cells were scraped from the culture plates, suspended in Tris-HCl 50 mM pH 7.5 and collected through centrifugation (1000 rpm for 5 min). The cell pellets were homogenized (Polytron, 15 s, setting 5) in 50 mM Tris-HCl (pH 7.5), 5 mM EDTA. Following centrifugation (15,000 rpm for 25 min), membranes (135 μg protein/mL) were resuspended in the same buffer and incubated for 60 min at RT with 1 nM [^3H]5-CT in the presence of increasing concentration of test compounds. Nonspecific binding was defined in the presence of 10 μM 5-HT. Incubation was stopped by rapid filtration using the cell harvester (Packard). Radioactivity was counted in a TopCount-NXT (Packard). Experiments were conducted in triplicate.

Experiment [4] addresses T5, human recombinant 5-HT2B receptor (Homo sapiens, UniProt P41595).
T5 construct: expressed in transfected cells; host or cells: CHO
Put plainly: Affinity for 5-HT2B receptor binding sites (competitive radioligand binding, [3H]mesulergine). Conditions: membranes of CHO with h5-HT2B, * = tested as hydrochloride salt. The procedure, abridged:
as §1

T4 sequence (P32305 whole entry): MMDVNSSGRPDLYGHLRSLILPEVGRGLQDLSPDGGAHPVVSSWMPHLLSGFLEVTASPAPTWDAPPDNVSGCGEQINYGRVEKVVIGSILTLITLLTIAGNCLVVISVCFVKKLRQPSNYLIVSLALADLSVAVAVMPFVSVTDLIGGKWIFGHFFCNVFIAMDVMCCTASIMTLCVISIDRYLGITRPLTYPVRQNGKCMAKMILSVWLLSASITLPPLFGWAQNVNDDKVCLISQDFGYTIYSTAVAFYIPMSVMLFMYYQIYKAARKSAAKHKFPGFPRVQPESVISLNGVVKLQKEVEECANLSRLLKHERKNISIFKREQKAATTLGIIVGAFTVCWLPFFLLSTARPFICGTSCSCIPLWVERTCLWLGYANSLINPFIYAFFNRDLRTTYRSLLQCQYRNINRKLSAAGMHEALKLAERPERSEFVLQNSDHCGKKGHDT
T5 sequence (P41595 whole entry): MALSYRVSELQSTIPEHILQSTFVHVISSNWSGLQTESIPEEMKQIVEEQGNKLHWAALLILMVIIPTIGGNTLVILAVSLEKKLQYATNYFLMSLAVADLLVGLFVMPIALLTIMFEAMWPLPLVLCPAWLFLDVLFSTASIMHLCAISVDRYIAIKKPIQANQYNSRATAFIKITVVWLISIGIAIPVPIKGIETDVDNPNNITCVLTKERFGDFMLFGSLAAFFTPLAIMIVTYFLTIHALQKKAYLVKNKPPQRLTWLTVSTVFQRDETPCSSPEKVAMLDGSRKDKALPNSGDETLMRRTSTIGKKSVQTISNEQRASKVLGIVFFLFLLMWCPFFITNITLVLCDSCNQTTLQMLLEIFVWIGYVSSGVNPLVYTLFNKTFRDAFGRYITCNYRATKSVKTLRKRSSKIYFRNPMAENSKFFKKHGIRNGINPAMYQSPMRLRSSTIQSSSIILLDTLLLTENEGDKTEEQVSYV

For orientation: Ki means a dissociation constant, usually derived from enzyme kinetics or from competition with a known ligand. For `CCN(CC)c1nc2c(c(-c3ccc(F)cc3)n1)CCCNC2` [Example 1, Diethyl-[4-(4-fluoro-phenyl)-6,7,8,9-tetrahydro-5H-pyrimido[4,5-c]azepin-2-yl]-amine], the Ki in experiment [1] came out at 300 nM; in experiment [2], 2260 nM; in experiment [3] it was 20 nM; at rat 5-HT7a receptor it was 470 nM; in experiment [4] it was 32 nM.

With `CCN(CC)c1nc2c(c(-c3ccc(C)cc3)n1)CCCNC2` [Example 2], the Ki in experiment [1] came to 430 nM; in experiment [2] it was 300 nM; in experiment [3], 170 nM; at rat 5-HT7a receptor, 220 nM; in experiment [4], 25 nM.

For the compound `CCN(CC)c1nc2c(c(-c3ccc(OC)cc3)n1)CCCNC2` [Example 3, Diethyl-[4-(4-methoxy-phenyl)-6,7,8,9-tetrahydro-5H-pyrimido[4,5-c]azepin-2-yl]-amine], the Ki stood at 400 nM in experiment [1]; 160 nM in experiment [2]; 200 nM in experiment [3]; 240 nM on rat 5-HT7a receptor; 20 nM in experiment [4].

Turning to `CCN(CC)c1nc2c(c(-c3ccc(C#N)cc3)n1)CCCNC2` [Example 4, 4-(2-Diethylamino-6,7,8,9-tetrahydro-5H-pyrimido[4,5-c]azepin-4-yl)-benzonitrile], the Ki in experiment [1] was 9000 nM; in experiment [2] it was 3750 nM; in experiment [3] it was 240 nM; at rat 5-HT7a receptor, 920 nM; in experiment [4] it was 100 nM.

In the case of `COc1ccc(-c2nc(N3CCCCC3C)nc3c2CCCNC3)cc1` (stereo not shown) [Example 5, 4-(4-Methoxy-phenyl)-2-(2-methyl-piperidin-1-yl)-6,7,8,9-tetrahydro-5H-pyrimido[4,5-c]azepine hydrochloride], the Ki in experiment [1] was 1800 nM; in experiment [2], 127 nM; in experiment [3], 1500 nM; on rat 5-HT7a receptor, greater than 10000 nM; in experiment [4], 200 nM.

As to `CC1CCCCN1c1nc2c(c(-c3ccc(F)cc3)n1)CCCNC2` (stereo not shown) [Example 6, 4-(4-Fluoro-phenyl)-2-(2-methyl-piperidin-1-yl)-6,7,8,9-tetrahydro-5H-pyrimido[4,5-c]azepine], the Ki in experiment [1] is 1000 nM; in experiment [2], 310 nM; in experiment [3] it was 200 nM; on rat 5-HT7a receptor, greater than 10000 nM; in experiment [4], 200 nM.

Turning to `CC1CCCCN1c1nc2c(c(-c3ccc(C#N)cc3)n1)CCCNC2` (stereo not shown) [Example 7, 4-[2-(2-Methyl-piperidin-1-yl)-6,7,8,9-tetrahydro-5H-pyrimido[4,5-c]azepin-4-yl]-benzonitrile], the inhibitory constant (Ki) in experiment [1] is 3200 nM; in experiment [2], 1240 nM; in experiment [3] it was 400 nM; at rat 5-HT7a receptor it was greater than 10000 nM; in experiment [4], 280 nM.

As for `Cc1ccc(-c2nc(N3CCCC3)nc3c2CNCC3)cc1` [Example 47, 2-Pyrrolidin-1-yl-4-p-tolyl-5,6,7,8-tetrahydro-pyrido[4,3-d]pyrimidine], the Ki in experiment [1] was 1600 nM; in experiment [3], 120 nM; on rat 5-HT7a receptor, greater than 10000 nM; in experiment [4], 500 nM.

`CC1CCCN1c1nc2c(c(-c3ccc(Cl)cc3)n1)CCNCC2` (stereo not shown) [Example 54, 4-(4-Chloro-phenyl)-2-(2-methyl-pyrrolidin-1-yl)-6,7,8,9-tetrahydro-5H-pyrimido[4,5-d]azepine]: the Ki is 89 nM in experiment [1], 30 nM in experiment [3], 370 nM at rat 5-HT7a receptor and 5 nM in experiment [4].

In the case of `Clc1ccc(-c2nc(NCc3ccccc3)nc3c2CCNCC3)cc1` [Example 56, Benzyl-[4-(4-chloro-phenyl)-6,7,8,9-tetrahydro-5H-pyrimido[4,5-d]azepin-2-yl]-amine], the Ki stood at 40 nM in experiment [1], 1.4 nM in experiment [3], 9000 nM on rat 5-HT7a receptor and 45 nM in experiment [4].

Regarding `CCN(CC)c1nc2c(c(-c3ccc(Cl)cc3)n1)CNCCC2` [Example 59, [4-(4-Chloro-phenyl)-6,7,8,9-tetrahydro-5H-1,3,6-triaza-benzocyclohepten-2-yl]-diethyl-amine hydrochloride], the Ki in experiment [2] was 1480 nM; at rat 5-HT7a receptor, greater than 10000 nM.
